Results reported in patent publication US7795235B2, “Semi-soft c-class immunostimulatory oligonucleotides” (Coley Pharmaceutical GmbH, priority 2004, dated 2010).
Oligonucleotides are written 5' to 3', each unit as a sugar letter and its base; * is a phosphorothioate linkage, no mark a phosphodiester; rarer units and linkages stand in square brackets, end groups in braces. Plain capitals give the bases only. d = 2'-deoxy (DNA)

Legend:
human TLR9 = target: T1, human TLR9 (Homo sapiens, UniProt Q9NR96); experiment: Stimulation of TLR9-transfected cells in vitro (luciferase readout); format: cell-based; conditions: quotient between highest value of all concentrations tested and medium control
T1 construct: expressed in transfected cells; host or cells: HEK 293
T1 sequence (Q9NR96 26-1032): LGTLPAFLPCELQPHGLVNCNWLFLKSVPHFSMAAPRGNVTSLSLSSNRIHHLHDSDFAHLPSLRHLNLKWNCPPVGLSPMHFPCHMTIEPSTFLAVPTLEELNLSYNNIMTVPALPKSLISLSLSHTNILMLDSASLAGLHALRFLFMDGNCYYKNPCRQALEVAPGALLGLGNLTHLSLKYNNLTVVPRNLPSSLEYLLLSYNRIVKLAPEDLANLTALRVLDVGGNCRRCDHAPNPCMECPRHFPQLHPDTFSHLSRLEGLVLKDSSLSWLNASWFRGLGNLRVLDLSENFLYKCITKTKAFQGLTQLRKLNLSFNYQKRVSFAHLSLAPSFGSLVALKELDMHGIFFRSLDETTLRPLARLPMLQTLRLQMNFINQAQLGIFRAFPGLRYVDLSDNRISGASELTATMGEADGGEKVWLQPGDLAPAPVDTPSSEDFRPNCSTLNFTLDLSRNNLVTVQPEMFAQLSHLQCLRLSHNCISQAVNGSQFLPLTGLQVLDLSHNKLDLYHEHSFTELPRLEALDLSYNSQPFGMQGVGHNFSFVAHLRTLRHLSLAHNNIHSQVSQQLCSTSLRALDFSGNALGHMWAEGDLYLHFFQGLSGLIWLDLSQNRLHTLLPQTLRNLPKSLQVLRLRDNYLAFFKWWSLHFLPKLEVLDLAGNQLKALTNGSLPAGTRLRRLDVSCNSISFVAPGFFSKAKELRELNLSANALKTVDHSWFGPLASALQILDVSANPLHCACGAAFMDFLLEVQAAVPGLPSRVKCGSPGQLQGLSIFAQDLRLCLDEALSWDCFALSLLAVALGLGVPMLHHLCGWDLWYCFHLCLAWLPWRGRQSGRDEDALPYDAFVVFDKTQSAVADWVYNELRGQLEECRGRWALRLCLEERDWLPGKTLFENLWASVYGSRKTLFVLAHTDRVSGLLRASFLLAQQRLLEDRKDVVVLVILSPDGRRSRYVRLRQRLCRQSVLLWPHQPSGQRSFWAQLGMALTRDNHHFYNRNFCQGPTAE
Experimental: Methods: HEK 293 cells transfected with human TLR9 were incubated with SEQ ID NO:1, SEQ ID NO:2, SEQ ID NO:3, SEQ ID NO:4, SEQ ID NO:5, or SEQ ID NO:6 for 16 hours. The signal was determined by a luciferase readout.
The EC50 was calculated using Sigma Plot (SigmaPlot 2002 for Windows version 8.0). The maximal stimulation index (max SI) was calculated as the quotient between the highest value of all concentrations tested for any ODN and the medium control.

BALB/c mice [1] = experiment: Antigen-induced IgE and IgG2a production in the mouse; format: in vivo; conditions: i.p. 1-1000 μg/kg, serum study day 18, FIG. 19
Experimental: Methods: Mice (male BALB/c) were sensitized on study days 0 and 7 with antigen (ovalbumin, 10 μg, i.p.) and aluminum hydroxide adjuvant Pierce Alum, i.p.). Mice received SEQ ID NO:2 or SEQ ID NO:7 on study days −2, 0, 5 and 7 (i.e. two days before each sensitization and on the day of sensitization). Mice were bled by cardiac puncture on study day 18. Serum was collected by centrifugation and assayed by ELISA for ovalbumin-specific IgE and IgG2a.

BALB/c mice [2] = format: in vivo; conditions: mouse
guinea pigs = experiment: Guinea pig AHR protocol (airway resistance and lung compliance); format: in vivo; conditions: guinea pigs, 10, 30, 100 or 300 μl/kg, i.t.
Experimental: Male guinea pigs were sensitized on study days 0 and 4 with antigen (ovalbumin, 0.5 ml, 1% OVA i.p./s.c.) with aluminum hydroxide adjuvant. Guinea pigs were antigen challenged by exposure to inhaled ovalbumin aerosol, twice each week for two consecutive weeks. The first challenge was on study day 13. CpG ODN or vehicle (saline, 20 μl) were administered intranasally once each week, two days before the first antigen challenge of the week. Airways hyperreactivity was assessed 24 hours after the last antigen challenge by measuring bronchoconstriction (increase in airway resistance) to intravenous methacholine. For each animal, a dose-response curve to methacholine was obtained, and airway reactivity was quantified as the area under the curve.
Method: Guinea pigs were sensitized as described in Example 10. The first challenge was on study day 13. Guinea pigs were given intranasally either carrier (saline), OVA alone, of concentrations of SEQ ID NO:7 of 10 μl/kg, 30 μl/kg, 100 μl/kg, or 300 μl/kg, i.t.
Method: Guinea pigs were sensitized as described in Example 10. The first challenge was on study day 13. Guinea pigs were given intranasally either carrier (saline), OVA alone, of concentrations of SEQ ID NO:2 of 10 μl/kg, 30 μl/kg, 100 μl/kg, or 300 μl/kg, i.t.

mouse splenocytes = experiment: Cytokine secretion from mouse splenocytes by SEQ ID NO: 2 and fragments; format: cell-based; conditions: 0.01-10 μg/ml, 36 hours, FIGS. 43-45
Experimental: Spleens were removed from 6 mice (male, BALB/c). The splenocytes from each spleen were separated by pushing gently through a cell sieve (70 μm pore size), and were then pooled. Splenocytes were added to wells of culture plates. 1×10^7 cells in a volume of 900 μl medium were added to each well. Medium was RPMI 1640 containing 10% fetal bovine serum. 100 μl aliquots of CpG ODN solutions in medium were added to each well to give final concentrations in the wells of 0.01-10 μg/ml. After incubation for 36 hours (37 C, 5% CO2 incubator), culture supernatants were collected and assayed for cytokine concentrations using either the Luminex multiplex assay (IFNγ, IP-10, IL-10, IL-6, TNFα) or ELISA (IFNα).
The aim of this study was to investigate the biological activity of selected fragments (putative metabolites) of SEQ ID NO: 2. Activity was determined by measuring the ability of each fragment to induce secretion of TLR9-associated cytokines from mouse splenocytes […].
Stimulation of cytokine secretion by fragments of SEQ ID NO.: 2 is shown in the attached FIGS. 43-45. The oligonucleotides examined are depicted in the Figures by SEQ ID NO and include SEQ ID NO: 15-23. The concentration of oligonucleotide used to produce a particular data point is depicted along the X-axis (μg/ml).

[3] = 100 μg/kg intranasal, both virus-infected and antigen-challenged

“T*C_G*T*C_G*T*C_G*T*T*C_G*G*C*G*C_G*C*G*C*C*G (DNA dT*dCdG*dT*dCdG*dT*dCdG*dT*dT*dCdG*dG*dC*dG*dCdG*dC*dG*dC*dC*dG) [SEQ ID NO: 2, Semi-soft class C CpG ODN]” was tested, and the “max SI (maximal stimulation index)” value (human TLR9) was 20, the “production of antigen (ovalbumin)-specific IgE” value (BALB/c mice [1]) was “suppressed” and the “production of antigen (ovalbumin)-specific IgG2a” value (BALB/c mice [1]) was “potentiated”. For the same substance, the antigen-induced eosinophilia (BALB/c mice [2]; 100 μg/kg intranasal, antigen challenge alone, FIG. 20) was “significantly suppress”, the “exacerbated accumulations of neutrophils and mononuclear cells” value (BALB/c mice [2]; [3]) was “both suppressed” and the exacerbated airways inflammation (BALB/c mice [2]; [3]) was “significantly suppressed”. The virus-induced neutrophilia (BALB/c mice [2]; 100 μg/kg intranasal, virus infection alone, FIG. 20) was “did not suppress”, the “loss of body weight” value (BALB/c mice [2]; both virus-infected and antigen-challenged) was “significantly suppressed” and the “AUC-resistance (airway reactivity, area under the dose-response curve)” value (guinea pigs) was “dose-dependent reduction”. The “induction of TLR9-associated cytokines IFNα, IFNγ, IP-0, IL-6, IL-10 and TNFα” value (mouse splenocytes) was “induced”.
